# Patent publication US5811074A, “Method of diagnosing pituitary dependent growth hormone deficiency” (University of South Florida, priority 1996, dated 1998)
# Where a SMILES comes first, the peptide text is derived from it. Where no end group is shown, it is not given here. [ ]: non-standard residue; d: D form.
# Tests used:
# GH secretion [1] = test: Provocative challenge with a GH secretagogue administered alone, peak serum GH; assay type: in vivo
# Experimental: The diagnostic potential of GHRX and GHRH, with GHRP and growth hormone releasing hormone respectively the preferred compounds, for determining the etiology of GH secretory deficiency is profoundly affected by the sequence in which the secretagogues are administered. When GHRH is administered alone, the GH secretory response it elicits is extremely variable and is poorly dose related (Table 1).
# On the other hand, the response to GHRP administered alone is not variable (Table 2). The minimal variability of the GHRP response is presumed to result from its partial action as a somatostatin […].
# The growth hormone levels in the blood of the child or adult can be measured by any well known procedures, e.g., using an immunoradiometric assay as described by Bowers et al. (1990) or any other contemporary, scientifically accepted method.
# GH release [2] = conditions: rats; Bercu et al., 1992a; cited from earlier work
# GH secretion [3] = test: Repeated injections of GHRH preceded by GHRP in the same individual, peak serum GH; assay type: in vivo; conditions: repeated tests in same individual
# Experimental: The timing between the sequential, independent challenges must be between two and four hours with the preferred embodiment at two hours (120 minutes after GHRX administration). Blood is drawn at regular intervals for up to two hours after the administration of each secretagogue, generally every 5 minutes for the first 20 minutes after administration and 10-15 minute intervals thereafter for the remaining two hours. From these blood samples the peak GH response is measured thereby determining if GH level changes after each administration has occurred.
# Relevant to using GHRH and GHRP as diagnostic agents is the fact that GHRP eliminates the endogenous factors causing variability in the GHRH response. Administration before GHRH creates an episode of GH secretion that "resets" the sensitivity of the GH neurosecretory axis to stimulation by GHRH, so that at the time of GHRH administration, uniform baseline conditions in the subject have been achieved. This then puts the GH neurosecretory axis in a uniform state of readiness for GHRH so that a subsequent relatively stable and constant episode of GHRH-stimulated GH secretion results (Table 3). This GHRH stimulated GH secretory episode can then be compared with the stable episode of GHRP-stimulated GH secretion that preceded it as a basis for the diagnostic test of the present invention.
# GH secretion [4] = test: Pediatric study: sequential GHRP then GHRH bolus, and co-administration, serum GH by radioimmunoassay; assay type: in vivo, children; conditions: for GH response to sequentially administered secretagogue: hypopituitary subject (atrophic, developmentally retarded pituitary gland), FIG. 4B
# Experimental: The protocol used in the pediatric study from which data presented below were collected involved the sequential administration of exogenous GHRP and exogenous GHRH as set forth in the present invention (Table 4; FIGS. 1A-1B). Briefly, each subject began testing at approximately 0900 h, one half hour after placement of an intravenous catheter. Two blood samples for basal concentrations of serum GH were drawn, and GHRP (1 μg/kg) was administered as a bolus. Blood samples were then drawn at five minute intervals for 20 minutes during which the GH secretory response occurred, and at longer intervals for about two hours thereafter.
# GHRH (1 μg/kg) was then administered as a bolus, when basal GH concentrations were again established. Blood samples were similarly collected after GHRH administration as they were following GHRP administration. GH concentrations in each serum was then determined by radioimmunoassay.
# The study population was composed of children with normal GH secretory function (serving as controls and normal baseline values) and those with GH secretory dysfunction of various clinical diagnoses. The purpose of evaluating different etiologies of GH secretory dysfunction was to validate the hypothesis that complementary endogenous GH secretagogues must be present for optimal expression of GHRP or GHRH stimulatory potential.
# GH release [5] = test: GHRP-6 activity in young rats with reduced endogenous GHRH (GHRH antiserum or α-methyl-p-tyrosine); assay type: in vivo
# Experimental: FIG. 2 is a dose response curve for GHRP-6 in rats pretreated with vehicle (triangles), α-methyl-p-tyrosine (circles), or GHRH antiserum (squares). Values represent means±SEM (8 rats per dose and treatment) in plasma collected 15 minutes after administration of GHRP-6.
# Young rats were passively immunized against endogenous GHRH or administered α-methyl-.rho.-tyrosine. If GHRH and the endogenous ligand of GHRP-6 are physiological co-agonists of GH secretion in the young rat, then removal of one or the other should be expressed as attenuated activity of its co-agonist when administered alone. Passive immunization which inactivates GHRH with neutralizing antibodies, or α-methyl-p-tyrosine (L form) which blocks stimulation of hypothalamic GHRH neurons were used to remove or reduce concentrations of endogenous GHRH in the young experimental animals. These treatments were intended to simulate the aged condition in which concentrations of GHRH and GHRH mRNA are low (De Gennaro Collona et al., 1989; Morimoto et al., 1988). Afterwards, GHRP-6 was administered to test and compare its efficacy with that in old rats (Walker et al., 1991).
# Presumably, naturally occurring decrements in endogenous GHRH during aging contributed to the blunted response to GHRP-6 that applicants observed (Walker et al., 1991). […]
# GH release [6] = test: GH release after GHRP-6 alone and in combination with GHRH in old versus young rats; assay type: in vivo, Fischer 344 rats; conditions: GHRP-6 alone, old vs young rats
# Text: Fischer 344 rats (Charles River), both male and female, were used. Young animals are defined as sexually mature between 2 and 7 months of age. Old animals are defined as those over 16 months of age.
# GHRH-efficacy has been reported to be reduced 50 to 75% in old rats (Sonntag et al., 1983); therefore, applicants tested the effect of GHRP-6 alone and in combination with GHRH on GH release in old rats. Peak plasma GH concentrations resulting from GHRP-6 administration in old rats were approximately 60% less than in young rats. […] Since target organs sometimes become hyperresponsive when tonic and/or phasic stimulation decreases, than one would expect exaggerated responses to provocative exogenous stimuli under experimental conditions. GH hypersecretion observed in naive, old rats administered a single bolus of GHRH and GHRP (Walker et al., 1991) provides support for the hypothesis that deficits in stimulated GH secretion in aged rats were due to insufficient signals or inappropriately transduced GH releasing stimuli.
# pituitary GHRH receptor = target: T1, pituitary GHRH receptor (Rattus norvegicus, UniProt Q02644); test: Effect of GHRH receptor antagonist on GH release in response to GHRP-6 or morphine in young rats; assay type: in vivo
# T1 construct: tissue Charles River; host or cells: living Fischer 344 rats (pituitary, in vivo)
# T1 sequence (Q02644 23-464): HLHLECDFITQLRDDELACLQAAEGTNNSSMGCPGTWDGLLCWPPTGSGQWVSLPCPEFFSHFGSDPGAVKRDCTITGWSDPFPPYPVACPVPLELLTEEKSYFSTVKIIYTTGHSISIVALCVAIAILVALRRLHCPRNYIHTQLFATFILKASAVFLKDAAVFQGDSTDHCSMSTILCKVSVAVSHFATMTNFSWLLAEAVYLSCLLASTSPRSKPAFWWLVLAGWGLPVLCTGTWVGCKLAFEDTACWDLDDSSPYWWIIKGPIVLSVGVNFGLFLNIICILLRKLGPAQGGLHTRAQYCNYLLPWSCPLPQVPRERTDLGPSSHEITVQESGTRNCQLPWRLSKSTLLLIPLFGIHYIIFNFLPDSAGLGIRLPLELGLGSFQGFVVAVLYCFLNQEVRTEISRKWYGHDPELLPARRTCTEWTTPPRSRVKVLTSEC
# Experimental: FIGS. 3A-3B are dose response curves showing the effect of [N-Ac-Tyr^1,D-Arg^2 ]-GRF 1-29 amide, a GHRHreceptor antagonist, on GH release in response to GHRP-6 (30 μg/kg, closed symbols, FIG. 3A) or morphine (1.5 mg/kg, open symbols, FIG. 3B). The GHRH receptor antagonist was administered in doses of 0 (circle), 5 (square), 50 (triangle), or 150 (diamond) μg/kg. Values represent mean±SEM 8 rats per group.
# The second possible cause of age-related decrements in GH secretion applicants considered was that deterioration in GH secretagogue signal transduction at the pituitary level contributes to the progressive insensitivity to provocative stimuli. In a test of this hypothesis, applicants examined GH secretory responses to GHRP-6 in young rats administered [N-Ac-Tyr^1, D-Arg^2 ]-GRF 1-29, an antagonist to the pituitary GHRH receptor.
# However, 150 μg/kg of [N-Ac-Tyr^1, D-Arg^2 ]-GRF 1-29 amide potentiated GHRP-6 activity, presumably due to partial agonist activity of the GHRH receptor […] at the higher dose (Bercu et al., 1992a).
compound,measurement,setting,value
"C[C@H](NC(=O)[C@@H](Cc1c[nH]c2ccccc12)NC(=O)[C@@H](N)Cc1c[nH]cn1)C(=O)N[C@@H](Cc1c[nH]c2ccccc12)C(=O)N[C@H](Cc1ccccc1)C(=O)N[C@@H](CCCCN)C(N)=O [GHRP-6, His-D-Trp-Ala-Trp-D-Phe-Lys-NH2] (H-H[dW]AW[dF]K-NH2)",Peak Serum GH x ± SEM,"GH secretion [1]; GHRP alone, 0.1 μg/kg",17.51 ± 1.91 ng/mL
same,Peak Serum GH x ± SEM,"GH secretion [1]; GHRP alone, 0.5 μg/kg",41.31 ± 3.97 ng/mL
same,Peak Serum GH x ± SEM,"GH secretion [1]; GHRP alone, 1.0 μg/kg",67.88 ± 6.1 ng/mL
same,Peak Serum GH x ± SEM,"GH secretion [1]; GHRP alone, 1.5 μg/kg",81.60 ± 5.88 ng/mL
same,Reduction of GHRP-6 activity by passive immunization against endogenous GHRH,GH release [2],approximately 90%
same,Peak Serum GH x ± SEM,GH secretion [3]; GHRP 1.0 μg/kg given first,69.31 ± 4.21 ng/mL
same,GHRP:GHRH ratio,GH secretion [4]; children after radiation of the head (group),< 1
same,GHRP:GHRH ratio,GH secretion [4]; children responding poorly to both secretagogues but better to GHRP (group),> 3
same,GHRP to GHRH ratio,"GH secretion [4]; constitutional delay subject, FIG. 4C",3.1
same,"Peak response, serum GH","GH secretion [4]; constitutional delay subject, FIG. 4C, GHRP-6 1 μg/kg",13.5 ng/mL
same,GH response to sequentially administered secretagogue,GH secretion [4],responded to neither
same,GHRP to GHRH ratio,"GH secretion [4]; irradiated subject, FIG. 4D",0.38
same,"Peak response, serum GH","GH secretion [4]; irradiated subject, FIG. 4D, GHRP-6 1 μg/kg",18.9 ng/mL
same,GHRP-6 activity (plasma GH 15 minutes after GHRP-6),GH release [5]; young female rats pretreated with GHRH antiserum,significantly attenuated
same,GHRP-6 activity (plasma GH 15 minutes after GHRP-6),GH release [5]; young female rats pretreated with α-methyl-p-tyrosine,significantly attenuated
same,"Peak plasma GH concentration in old rats, less than in young rats",GH release [6],approximately 60%
"GHRH: naturally occurring GH releasing hormone (growth hormone releasing hormone) (YADAIFTNSYRKVLGQLSARKLLQDIMSRQQGESNQERGARARL; ends and bridges not checked; UniProt P01286 32-75, looked up)",Peak Serum GH x ± SEM,"GH secretion [1]; GHRH alone, 0.1 μg/kg",9.46 ± 3.71 ng/mL
same,Peak Serum GH x ± SEM,"GH secretion [1]; GHRH alone, 0.33 μg/kg",16.45 ± 8.11 ng/mL
same,Peak Serum GH x ± SEM,"GH secretion [1]; GHRH alone, 1.0 μg/kg",13.54 ± 6.51 ng/mL
same,Peak Serum GH x ± SEM,"GH secretion [1]; GHRH alone, 3.3 μg/kg",21.80 ± 6.78 ng/mL
same,Peak Serum GH x ± SEM,"GH secretion [1]; GHRH alone, 10.0 μg/kg",17.41 ± 4.67 ng/mL
same,Peak Serum GH x ± SEM,GH secretion [3]; GHRH 1.0 μg/kg preceded by GHRP,32.66 ± 3.33 ng/mL
same,"Peak response, serum GH","GH secretion [4]; constitutional delay subject, FIG. 4C, GHRH 1 μg/kg",4.4 ng/mL
same,GH response to sequentially administered secretagogue,GH secretion [4],responded to neither
same,"Peak response, serum GH","GH secretion [4]; irradiated subject, FIG. 4D, GHRH 1 μg/kg",49.4 ng/mL
"[N-Ac-Tyr^1,D-Arg^2 ]-GRF 1-29 amide [[N-Ac-Tyr^1, D-Arg^2]-GRF 1-29 amide]",GHRP-6 stimulated GH secretion as a function of time,"pituitary GHRH receptor; 50 μg/kg antagonist, P<0.05, FIG. 3A",significantly reduced
same,GHRP-6 stimulated GH secretion as a function of time,"pituitary GHRH receptor; 150 μg/kg antagonist, P<0.01, FIG. 3A",significantly increased
same,Effect on GHRP-6 activity,"pituitary GHRH receptor; 150 μg/kg, GHRP-6 30 μg/kg",potentiated
same,Morphine-stimulated GH secretion,"pituitary GHRH receptor; 50 and 150 μg/kg antagonist, P<0.05, morphine 1.5 mg/kg, FIG. 3B",significantly reduced
same,Effect on GHRP activity,"pituitary GHRH receptor; pre-administration of 5 to 50 μg/kg, GHRP-6 30 μg/kg",attenuated
